According to ChEMBL document CHEMBL1649393, “Synthesis and antimicrobial activity of thiosemicarbazides, s-triazoles and their Mannich bases bearing 3-chlorophenyl moiety” (2011):
Converted amounts (≈) assume the structure as drawn.

What was measured:
Type in all cases: functional
Klebsiella pneumoniae [1] = assay: Antimicrobial activity against Klebsiella pneumoniae ATCC 13883 after 18 hrs by broth microdilution method; settings: ATCC 13883, 18 h
Proteus mirabilis [2] = assay: Antimicrobial activity against Proteus mirabilis ATCC 12453 after 18 hrs by broth microdilution method; settings: ATCC 12453, 18 h
Bacillus subtilis [3] = assay: Antimicrobial activity against Bacillus subtilis ATCC […] after 18 hrs by broth microdilution method
Staphylococcus aureus [4] = assay: Antimicrobial activity against Staphylococcus aureus ATCC 6538 assessed as >99.9 % reduction in CFU after 18 hrs by broth microdilution method; settings: ATCC 6538, 18 h
Staphylococcus aureus [5] = assay: Antimicrobial activity against Staphylococcus aureus ATCC 25923 after 18 hrs by broth microdilution method; settings: ATCC 25923, 18 h
Micrococcus luteus [6] = assay: Antimicrobial activity against Micrococcus luteus ATCC 10240 after 18 hrs by broth microdilution method; settings: ATCC 10240, 18 h
[7] = test system: Staphylococcus epidermidis; assay: Antimicrobial activity against Staphylococcus epidermidis ATCC 12228 assessed as >99.9 % reduction in CFU after 18 hrs by broth microdilution method; settings: ATCC 12228, 18 h
Staphylococcus aureus [8] = assay: Antimicrobial activity against Staphylococcus aureus ATCC 6538 after 18 hrs by broth microdilution method; settings: ATCC 6538, 18 h
Proteus mirabilis [9] = assay: Antimicrobial activity against Proteus mirabilis ATCC 12453 assessed as >99.9 % reduction in CFU after 18 hrs by broth microdilution method; settings: ATCC 12453, 18 h
Escherichia coli [10] = assay: Antimicrobial activity against Escherichia coli ATCC 25922 assessed as >99.9 % reduction in CFU after 18 hrs by broth microdilution method; settings: ATCC 25922, 18 h
Micrococcus luteus [11] = assay: Antimicrobial activity against Micrococcus luteus ATCC 10240 assessed as >99.9 % reduction in CFU after 18 hrs by broth microdilution method; settings: ATCC 10240, 18 h
Staphylococcus aureus [12] = assay: Antimicrobial activity against Staphylococcus aureus ATCC 25923 assessed as >99.9 % reduction in CFU after 18 hrs by broth microdilution method; settings: ATCC 25923, 18 h
Bacillus cereus [13] = assay: Antimicrobial activity against Bacillus cereus ATCC 10876 assessed as >99.9 % reduction in CFU after 18 hrs by broth microdilution method; settings: ATCC 10876, 18 h
Escherichia coli [14] = assay: Antimicrobial activity against Escherichia coli ATCC 25922 after 18 hrs by broth microdilution method; settings: ATCC 25922, 18 h
Klebsiella pneumoniae [15] = assay: Antimicrobial activity against Klebsiella pneumoniae ATCC 13883 assessed as >99.9 % reduction in CFU after 18 hrs by broth microdilution method; settings: ATCC 13883, 18 h, read-out: MBC
Bacillus subtilis [16] = assay: Antimicrobial activity against Bacillus subtilis ATCC […] assessed as >99.9 % reduction in CFU after 18 hrs by broth microdilution method
Bacillus cereus [17] = assay: Antimicrobial activity against Bacillus cereus ATCC 10876 after 18 hrs by broth microdilution method; settings: ATCC 10876, 18 h
[18] = test system: Staphylococcus epidermidis; assay: Antimicrobial activity against Staphylococcus epidermidis ATCC 12228 after 18 hrs by broth microdilution method; settings: ATCC 12228, 18 h

MIC (Klebsiella pneumoniae [1]) | MIC (Proteus mirabilis [2]; read-out: MIC) | MIC (Bacillus subtilis [3]) | MIC (Staphylococcus aureus [5]) | MIC (Micrococcus luteus [6]) | MIC (Staphylococcus aureus [8]) | MIC (Escherichia coli [14]) | MIC (Bacillus cereus [17]) | MIC [18] | MIC (Proteus mirabilis [2]) | Compound | MBC (Staphylococcus aureus [4]) | MBC [7] | MBC (Proteus mirabilis [9]; read-out: MBC) | MBC (Escherichia coli [10]) | MBC (Micrococcus luteus [11]) | MBC (Staphylococcus aureus [12]) | MBC (Bacillus cereus [13]) | MBC (Klebsiella pneumoniae [15]) | MBC (Bacillus subtilis [16]) | MBC (Proteus mirabilis [9])
500 µg/mL (≈ 1290 µM) | 500 µg/mL (≈ 1290 µM) | 125 µg/mL (≈ 321 µM) | 125 µg/mL (≈ 321 µM) | 125 µg/mL (≈ 321 µM) | 125 µg/mL (≈ 321 µM) | 500 µg/mL (≈ 1290 µM) | 250 µg/mL (≈ 643 µM) | 125 µg/mL (≈ 321 µM) | – | Fc1ccc(-n2c(-c3cccc(Cl)c3)nn(CN3CCCC3)c2=S)cc1 | 250 µg/mL (≈ 643 µM) | 500 µg/mL (≈ 1290 µM) | 1000 µg/mL (≈ 2570 µM) | 500 µg/mL (≈ 1290 µM) | 500 µg/mL (≈ 1290 µM) | 250 µg/mL (≈ 643 µM) | > 1000 µg/mL | 500 µg/mL (≈ 1290 µM) | 250 µg/mL (≈ 643 µM) | –
> 1000 µg/mL | > 1000 µg/mL | > 1000 µg/mL | 250 µg/mL (≈ 556 µM) | 500 µg/mL (≈ 1110 µM) | 250 µg/mL (≈ 556 µM) | > 1000 µg/mL | > 1000 µg/mL | 500 µg/mL (≈ 1110 µM) | – | S=c1n(CN2CCCC2)nc(-c2cccc(Cl)c2)n1-c1ccccc1Br | > 1000 µg/mL | > 1000 µg/mL | > 1000 µg/mL | > 1000 µg/mL | > 1000 µg/mL | > 1000 µg/mL | > 1000 µg/mL | > 1000 µg/mL | > 1000 µg/mL | –
> 1000 µg/mL | > 1000 µg/mL | 250 µg/mL (≈ 503 µM) | 500 µg/mL (≈ 1010 µM) | 500 µg/mL (≈ 1010 µM) | 500 µg/mL (≈ 1010 µM) | > 1000 µg/mL | 500 µg/mL (≈ 1010 µM) | 500 µg/mL (≈ 1010 µM) | – | S=c1n(CN2CCCC2)nc(-c2cccc(Cl)c2)n1-c1ccccc1I | > 1000 µg/mL | > 1000 µg/mL | > 1000 µg/mL | > 1000 µg/mL | > 1000 µg/mL | > 1000 µg/mL | > 1000 µg/mL | > 1000 µg/mL | > 1000 µg/mL | –
250 µg/mL (≈ 614 µM) | – | 125 µg/mL (≈ 307 µM) | 125 µg/mL (≈ 307 µM) | 125 µg/mL (≈ 307 µM) | 125 µg/mL (≈ 307 µM) | 500 µg/mL (≈ 1230 µM) | 125 µg/mL (≈ 307 µM) | 125 µg/mL (≈ 307 µM) | 500 µg/mL (≈ 1230 µM) | Fc1ccc(F)c(-n2c(-c3cccc(Cl)c3)nn(CN3CCCC3)c2=S)c1 | 500 µg/mL (≈ 1230 µM) | 1000 µg/mL (≈ 2460 µM) | – | > 1000 µg/mL | 1000 µg/mL (≈ 2460 µM) | 500 µg/mL (≈ 1230 µM) | > 1000 µg/mL | > 1000 µg/mL | 1000 µg/mL (≈ 2460 µM) | > 1000 µg/mL
